Source: patent US20140349941A1, “AROMATIC-CATIONIC PEPTIDES AND USES OF SAME” (Cornell University, priority 2011, published 2014)

Legend:
[1] = target: cyt c (Homo sapiens, UniProt P99999); test: Cyclic voltammetry of cyt c in solution
[2] = target: cyt c heme (Homo sapiens, UniProt P99999); test: Circular dichroism of cyt c Soret band; format: binding; settings: negative peak at 415 nm without peptide; FIG. 4
Procedure: Circular dichroism (Olis spectropolarimeter, DSM20) was carried out to monitor Soret band (negative peak at 415 nm), as a probe for the π-π* heme environment in cyt c (FIG. 4). […] The increase in π-π* interaction around the heme would enhance electron tunneling which would be favorable for electron diffusion.

[3] = system: isolated mitochondria; test: ATP synthesis in isolated mitochondria; format: biochemical, rat
Procedure: Fresh mitochondria were isolated from rat kidney as described previously. Electron flux was measured by O2 consumption (Oxygraph Clark electrode) as previously described using different substrates for C1 (glutamate/malate), C2 (succinate), and C3 (TMPD/ascorbate). Assays were carried out under low substrate conditions in order to avoid saturating the enzyme reactions. ATP production in isolated mitochondria was determined kinetically using the luciferase method (Biotherma) in a 96-well luminescence plate reader (Molecular Devices). The initial maximal rate for ATP synthesis was determined over the first minute.
The rate of mitochondrial ATP synthesis was determined by measuring ATP in respiration buffer collected from isolated mitochondria 1 min after addition of […] (FIG. 6). ATP was assayed by HPLC. All experiments were carried out in triplicate, with n=3.
SS-20 or SS-31 was added at 100 μM concentrations to isolated mitochondria in respiration buffer containing 0.5 mM succinate (complex II substrate) and 400 μM ADP. Similar increases in O2 consumption were observed when low concentrations of complex I substrates (glutamate/malate) were used (data not shown).
Increase in electron flux in the electron transport chain can either result in increase in ATP synthesis or increase in electron leak and generation of free radicals. ATP synthesis in isolated mitochondria was assayed by HPLC.

[4] = system: cyt c-depleted mitoplasts; test: Respiration in cytochrome c-depleted mitoplasts; format: biochemical, rat
Procedure: Rates of respiration were measured in the presence of 500 μM Succinate with or without 100 μM SS-31. The experiment was carried out in triplicate, with n=3.
A model of cyt C tightly bound to mitochondrial cardiolipin was used to investigate interaction of SS-31 with cytochrome c-CL complex in mitochondria. After removal of outer membrane with digitonin, mitoplasts were washed with 120 mM KCl to remove all free and electrostatically associated cytochrome c, leaving only cytochrome c tightly bound to CL.

[5] = target: heme environment of cytochrome c (with CL) (Homo sapiens, UniProt P99999); test: Soret CD spectrum of cyt C in the presence of CL; format: binding; settings: cyt C 10 μM; CL 30 μg/ml; peptide 10 μM; 20 mM HEPES pH 7.5, 25° C.; FIG. 24
Sequence of heme environment of cytochrome c (with CL) (P99999 2-105 limits assumed, species assumed): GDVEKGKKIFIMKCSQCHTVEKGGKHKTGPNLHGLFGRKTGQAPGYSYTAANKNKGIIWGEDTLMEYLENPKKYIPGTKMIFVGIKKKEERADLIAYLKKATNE
Procedure: Circular dichroism (CD) was carried out to examine the effects of the peptides on protecting the heme environment of cyt C from the acyl chain of CL. For heme proteins, the Soret CD spectrum is strictly correlated with the heme pocket conformation. In particular, the negative 416-420 nm Cotton effect is considered diagnostic of Fe(III)-Met80 coordination in native cyt C (Santucci and Ascoli, 1997). […] CD spectra were obtained using AVIV CD Spectrometer Model 410.
Changes in the Soret CD spectrum of cyt C (10 μM) were recorded in the absence (dotted line) and presence (dashed line) of 30 μg/ml CL, plus addition of different peptides (10 μM) (solid line) (FIG. 24). CD measurements were carried out using 20 mM HEPES, pH 7.5, at 25° C. and expressed as molar ellipticity (θ) (m Deg).

[6] = target: cytochrome c (with CL) (Homo sapiens, UniProt P99999); test: Cytochrome c reduction inhibited by CL; format: biochemical
Sequence of cytochrome c (with CL) (P99999 2-105 limits assumed, species assumed): as above
Procedure: Cytochrome c is a carrier of electrons between respiratory complex III and IV in mitochondria. Cytochrome c is reduced (Fe^2+) after it accepts an electron from cytochrome c reductase, and it is then oxidized to Fe^3+ by cytochrome c oxidase.
Reduction of cytochrome c (20 μM) was induced by the addition of glutathione (500 μM) in the absence or presence of CL (100 μg/ml) (FIG. 25A). Reduction of cytochrome c was monitored by absorbance at 550 nm using a 96-well UV-VIS plate reader (Molecular Devices). Addition of CL decreased the rate of cytochrome c reduction by half.

[7] = target: T1, horse radish peroxidase (HRP) (Armoracia rusticana, UniProt P00433); test: HRP activity (amplex red); format: biochemical; settings: data not shown
T1 sequence (P00433 31-338 limits assumed): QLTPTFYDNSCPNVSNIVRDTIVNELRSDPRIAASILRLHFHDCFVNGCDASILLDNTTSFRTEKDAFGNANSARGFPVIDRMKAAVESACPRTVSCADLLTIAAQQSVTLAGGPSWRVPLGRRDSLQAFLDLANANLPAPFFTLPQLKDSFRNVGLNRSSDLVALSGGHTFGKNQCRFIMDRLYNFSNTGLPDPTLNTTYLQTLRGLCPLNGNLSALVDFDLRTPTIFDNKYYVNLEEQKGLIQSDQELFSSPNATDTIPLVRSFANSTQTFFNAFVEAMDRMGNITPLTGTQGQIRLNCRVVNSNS
Source text: The six coordination of the heme in cytochrome c prevents direct interaction of H2O2 with the catalytic metal site, and native cytochrome c in solution is a poor peroxidase. Upon interaction with CL, cytochrome c undergoes a structural change with rupture of the Fe-Met80 coordination. […] The mechanism of action of cytochrome c peroxidase is similar to that of other peroxidases, such as horse radish peroxidase (HRP). Thus it is possible to use the amplex red-HRP reaction to investigate cytochrome c peroxidase activity. In the presence of peroxidase, amplex red (AR) reacts with H2O2 to form the red-fluorescent oxidation product, resorufin (Ex/Em=571/585).

Sequence of cyt c (P99999 2-105 limits assumed, species assumed): as the sequence (P99999 2-105 limits assumed, species assumed) above
Sequence of cyt c heme (P99999 2-105 limits assumed, species assumed): as the sequence (P99999 2-105 limits assumed, species assumed) above

D-Arg-2′6′Dmt-Lys-Phe-NH2 [SS-31]
current for reduction and oxidation processes of cyt c ([1]; Au working electrode, Ag/AgCl reference, FIG. 2 upper panel): increased current for both reduction and oxidation processes | reduction/oxidation potentials of cyt c ([1]; FIG. 2 upper panel): does not alter reduction/oxidation potentials | increase of current (electron diffusion rate) ([1]; cyt c:SS31=1:2, TBE buffer, FIG. 2 lower panel): ~200% | position of Soret band negative peak after red shift [2]: 440 nm | rate of mitochondrial ATP synthesis ([3]; ATP by HPLC 1 min after addition of 400 mM ADP, FIG. 6): dose-dependently increased the rate of ATP synthesis | ATP synthesis ([3]; assayed by HPLC, FIG. 27): dose-dependently increased ATP synthesis | rate of ATP production ([3]; mitochondria energized with low concentrations of succinate, FIG. 15): significant increase in the rate of ATP production | mitochondrial O2 consumption (respiration) ([4]; 500 μM succinate, 100 μM peptide, once-frozen rat kidney mitochondria, FIG. 7): Enhances Respiration in Cytochrome C-Depleted Mitoplasts | complex II respiration in mitoplasts ([4]; cytochrome c tightly bound to CL, digitonin, 120 mM KCl wash, dose-dependent, FIG. 28): enhances complex II respiration | disappearance of the negative Cotton effect caused by CL (heme environment of cytochrome c) [5]: Protect the Heme Environment of Cytochrome C from the Acyl Chain of CL | inhibitory effect of CL on kinetics of cytochrome c reduction ([6]; 500 μM GSH or 50 μM ascorbate, FIG. 25B): dose-dependently overcame the inhibitory effect of CL | inhibitory action of CL on rate of cytochrome c reduction ([6]; cytochrome c 20 μM, glutathione 500 μM, CL 100 μg/ml, peptide 20, 40 or 100 μM, FIG. 25A): dose-dependently prevented the inhibitory action of CL | HRP activity [7]: had no effect on HRP activity
